Measurements as given in PubChem BioAssay (NCI).
Values joined by “and” are separate entries in the source; they are usually repeats but may differ in a detail not shown here. Equal values may be shown once.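 Compound exposure: 48 hours, 5 concentrations, 96-well plates. GI50 marks 50% less growth. The concentration for full growth arrest is given as TGI.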

Experiments:
Test in all cases: growth of human tumour cells (NCI), 48 h
[1] = test system: M14 melanoma
[2] = test system: MDA-MB-435
[3] = test system: SN12C renal
[4] = test system: T-47D breast
[5] = test system: K-562 leukemia
[6] = test system: A549 NSCLC
[7] = test system: KM12 colon
[8] = test system: SW-620 colon
[9] = test system: SK-MEL-5 melanoma
[10] = test system: EKVX NSCLC

Row | SMILES | TGI [1] [µM] | TGI [2] | TGI [3] [µM] | TGI [4] [µM] | TGI [5] [µM] | TGI [6] | TGI [7] [µM] | TGI [8] [µM] | TGI [9] | TGI [10] [µM] | GI50 [5] [µM] | GI50 [9] [µM] | GI50 [1] [µM] | GI50 [3] [µM] | GI50 [4] [µM] | GI50 [6] [µM] | GI50 [7] [µM] | GI50 [8] [µM] | GI50 [10] [µM]
1 | CN(CCCNC(=O)c1cn(C)c2c1ccc1cc(Cl)c(Cl)cc12)CCCNC(=O)c1cn(C)c2c1ccc1cc(Cl)c(Cl)cc12 | 27.5 | 26.4 µM | 32.3 | 36.2 | 26.2 | 32.4 µM | 20.8 | 19.1 | 28.7 µM | 31.5 | – | – | – | – | – | – | – | – | –
2 | C[C@]12CC[C@@H]3c4ccccc4CC[C@H]3[C@@H]1CC[C@@H]2O | > 100 | – | > 100 | – | > 100 | > 100 µM | > 100 | > 100 | – | > 100 | – | – | – | – | – | – | – | – | –
3 | N[C@H]1CCN(c2c(F)cc3c(=O)c(C(=O)O)cn4c3c2Oc2cc3c(ccc5ccccc53)cc2-4)C1 | > 100 | > 100 µM | > 100 | – | > 100 | > 100 µM | > 100 | > 100 | 4.3 µM | 7.21 | – | – | – | – | – | – | – | – | –
4 | C/C(=N\NC(=O)c1cccnc1)c1cccc(/C(C)=N/NC(=O)c2cccnc2)n1 | 13.6 | – | > 100 | – | > 100 | 34.7 µM | > 100 | > 100 | 7.12 µM | > 100 | 3.04 | 2.05 | – | – | – | – | – | – | –
5 | COc1ccc(/C=C(\C#N)c2nc(N)nc(N3N=C(C)CC3(C)C)n2)c(O)c1 | 35.6 | 33.1 µM | > 100 | 34.5 | 84.7 | 44.5 µM | 29.2 | – | 28.5 µM | 47.9 | – | – | – | – | – | – | – | – | –
6 | O=C1c2cc3c(cc2-c2c1c1ccc(Cl)cc1c(=O)n2C[C@H](O)[C@@H](O)[C@H](O)CO)OCO3 | 10.1 | – | > 100 | 0.29 | > 100 | 0.476 µM | > 100 | 0.325 | 0.0701 µM | 11.2 | 0.0342 | 0.0253 | 0.0292 | 0.0473 | 0.0132 | 0.112 | 0.138 | 0.0163 | 0.202
7 | Cc1cc(O)c(C(C)C)cc1CN1CCCCC1 | > 100 | > 100 µM | > 100 | > 100 | > 100 | > 100 µM | > 100 | > 100 | > 100 µM | > 100 | – | – | – | – | – | – | – | – | –
8 | O=S(=O)(/N=C(\NO)Nc1ccc(Cl)cc1)c1ccc(S(=O)(=O)c2ccccc2)s1 | 37.4 | 37.3 µM | 39.9 | 96.3 | 40.3 | > 100 µM | 60.4 | > 100 | 24.5 µM | 51.5 | – | – | – | – | – | – | – | – | –
9 | CC(Sc1ccccc1)C(CO)(CO)[N+](=O)[O-] (stereo not drawn) | 32.9 | – | 31.2 | – | 34.4 | 34.1 µM | – | 28.4 | 25.8 µM | 34.1 | – | – | – | – | – | – | – | – | –
10 | C[C@]12CCC(=O)C=C1CC[C@@H]1[C@@H]2[C@@H](O)C[C@@]2(C)[C@H]1CC[C@]2(O)C(=O)CO | > 100 | > 100 µM | > 100 | > 100 | > 100 | > 100 µM | > 100 | > 100 | > 100 µM | > 100 | – | – | – | – | – | – | – | – | –
11 | COC(=O)C1C(C)N1C (stereo not drawn) | > 100 | – | > 100 | – | > 100 | > 100 µM | > 100 | > 100 | > 100 µM | > 100 | – | – | – | – | – | – | – | – | –
12 | O=C(CCN1CC2CCC(CC2)C1)c1cccs1 | 31.8 | 42.3 µM | 37.6 | 24.1 | 44 | > 57.6 µM | 40.7 | 12.2 | > 100 µM | 42.6 | – | – | – | – | – | – | – | – | –
13 | CC[C@@]1(O)C(=O)OCc2c1cc1n(c2=O)Cc2c-1nc1ccc(O)cc1c2CC[Si](C)(C)C | 0.0151 | 0.495 µM and 0.887 µM | – | – | – | 0.24 µM and 0.167 µM | 0.0659 | > 100 | 0.123 µM and 0.0438 µM | – | – | – | – | – | – | – | – | – | 0.0181
14 | NCCNc1nc(N2CCCC2)c2nc(Cl)c(NCc3ccccc3)nc2n1 | 3.16 | 3.19 µM | 2.92 | 3.79 | 0.182 | 3.36 µM | 2.93 | 4.73 | 3.27 µM | 4.36 | – | – | – | – | – | – | – | – | –
15 | O=S(=O)(O)c1cccc2c(N=Nc3c(O)ccc4ccccc34)cccc12 | > 100 | > 100 µM | > 100 | > 100 | > 100 | > 100 µM | > 100 | > 100 | > 100 µM | > 100 | – | – | – | – | – | – | – | – | –
16 | CC(=O)OC1CC(O)CC2=CCC3C4CCC(C(C)(O)C(O)CC5COC(=O)C5C)C4(C)CCC3C21C (stereo not drawn) | > 25 | > 25 µM | > 25 | > 25 | > 25 | > 25 µM | > 25 | > 25 | > 25 µM | > 25 | – | – | – | – | – | – | – | – | –
17 | CC(=O)N(C)c1ccc2c(ccc[n+]2[O-])c1[N+](=O)[O-] | > 100 | – | > 100 | – | > 100 | > 100 µM | > 100 | > 100 | > 100 µM | > 100 | – | – | – | – | – | – | – | – | –
18 | O=S1(=O)OC(c2ccc(O)cc2)(c2ccc(O)cc2)c2ccccc21 | > 100 | > 100 µM | > 100 | > 100 | > 100 | > 100 µM | > 100 | > 100 | > 100 µM | > 100 | – | – | – | – | – | – | – | – | –
